Data on eleven compounds can be found in patent publication US10266497B2 (ABIDE THERAPEUTICS, INC., priority 2017, dated 2019).

By IC50 is commonly meant the concentration needed to halve the response being measured. Lower therefore signals greater potency.

Assay [1] addresses T1, MAGL (Homo sapiens, UniProt Q99685).
T1 sequence (Q99685 1-303): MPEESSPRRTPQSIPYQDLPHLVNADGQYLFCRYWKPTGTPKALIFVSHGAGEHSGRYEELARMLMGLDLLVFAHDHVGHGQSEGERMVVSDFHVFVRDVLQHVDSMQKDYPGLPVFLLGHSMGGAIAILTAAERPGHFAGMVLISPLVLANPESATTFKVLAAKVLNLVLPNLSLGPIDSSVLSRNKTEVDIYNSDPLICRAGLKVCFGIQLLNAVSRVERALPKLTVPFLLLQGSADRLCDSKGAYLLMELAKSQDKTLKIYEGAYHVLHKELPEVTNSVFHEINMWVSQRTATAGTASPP
The experiment in a line: In vitro competitive activity-based protein profiling, MAGL, human. As to conditions: read-out: MAGL % inh. 1 μM (human).

The target in assay [2] is T2, FAAH (Homo sapiens, UniProt O00519).
T2 sequence (O00519 1-579): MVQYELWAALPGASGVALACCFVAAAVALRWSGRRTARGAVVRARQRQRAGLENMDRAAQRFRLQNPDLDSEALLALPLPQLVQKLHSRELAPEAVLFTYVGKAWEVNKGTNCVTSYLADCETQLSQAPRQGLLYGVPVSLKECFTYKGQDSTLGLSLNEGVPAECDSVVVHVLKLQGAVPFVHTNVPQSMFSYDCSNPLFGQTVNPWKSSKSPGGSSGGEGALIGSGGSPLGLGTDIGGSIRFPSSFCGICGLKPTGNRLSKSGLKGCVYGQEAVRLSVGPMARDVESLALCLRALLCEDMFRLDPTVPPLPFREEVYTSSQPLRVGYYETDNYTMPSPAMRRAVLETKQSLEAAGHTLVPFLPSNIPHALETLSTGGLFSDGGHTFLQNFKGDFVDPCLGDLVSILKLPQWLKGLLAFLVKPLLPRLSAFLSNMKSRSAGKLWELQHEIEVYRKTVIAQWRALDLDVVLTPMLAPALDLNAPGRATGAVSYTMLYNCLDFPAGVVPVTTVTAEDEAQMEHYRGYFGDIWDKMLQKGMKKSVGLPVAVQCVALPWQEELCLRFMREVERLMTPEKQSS
The experiment in a line: In vitro competitive activity-based protein profiling, FAAH, human. The note with it: for inhibition at 1 µM: read-out: FAAH % inh. 1 μM (human).

Assay [3] addresses T3, MAGL (Mus musculus, UniProt O35678).
T3 sequence (O35678 1-303): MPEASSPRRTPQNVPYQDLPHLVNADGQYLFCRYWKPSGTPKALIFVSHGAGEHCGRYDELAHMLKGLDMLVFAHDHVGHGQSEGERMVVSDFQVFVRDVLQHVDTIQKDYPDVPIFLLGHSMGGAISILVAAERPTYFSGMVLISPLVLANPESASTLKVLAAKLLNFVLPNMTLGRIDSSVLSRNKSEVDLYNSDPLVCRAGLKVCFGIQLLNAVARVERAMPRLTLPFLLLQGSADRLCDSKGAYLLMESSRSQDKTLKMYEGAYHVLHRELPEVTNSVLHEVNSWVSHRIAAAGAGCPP
The experiment in a line: Mouse brain proteomes from inhibitor treated mice (oral gavage, sacrificed 4 h after administration). Format: in vivo. Also on record: mouse brain membrane fraction for mouse assays; from tissue; host or cells: mouse brain (membrane fraction in vitro; brain proteomes of treated C57Bl/6J mice in vivo). As to conditions: 5 mg/kg oral gavage, brain proteome 4 h after administration, read-out: MAGL % inh. 5 mg/kg (mouse).

The target in assay [4] is T3, MAGL. The experiment in a line: In vitro competitive activity-based protein profiling, MAGL, mouse. As to conditions: read-out: MAGL % inh. 1 μM (mouse).
Method: Biological Evaluation In Vitro Competitive Activity-Based Protein Profiling.
Proteomes (mouse brain membrane fraction for mouse assays; human prefrontal cortex membrane fractions for human assays) (50 mL, 1.0 mg/mL total protein concentration) were preincubated with varying concentrations of inhibitors at 37° C. After 30 min, FP-Rh (1.0 mL, 50 mM in DMSO) was added and the mixture was incubated for another 30 min at 37° C. Reactions were quenched with SDS loading buffer (15 μL—4λ) and run on SDS-PAGE.
Assay [5] deals with T4, FAAH (Mus musculus, UniProt O08914).
T4 sequence (O08914 1-579): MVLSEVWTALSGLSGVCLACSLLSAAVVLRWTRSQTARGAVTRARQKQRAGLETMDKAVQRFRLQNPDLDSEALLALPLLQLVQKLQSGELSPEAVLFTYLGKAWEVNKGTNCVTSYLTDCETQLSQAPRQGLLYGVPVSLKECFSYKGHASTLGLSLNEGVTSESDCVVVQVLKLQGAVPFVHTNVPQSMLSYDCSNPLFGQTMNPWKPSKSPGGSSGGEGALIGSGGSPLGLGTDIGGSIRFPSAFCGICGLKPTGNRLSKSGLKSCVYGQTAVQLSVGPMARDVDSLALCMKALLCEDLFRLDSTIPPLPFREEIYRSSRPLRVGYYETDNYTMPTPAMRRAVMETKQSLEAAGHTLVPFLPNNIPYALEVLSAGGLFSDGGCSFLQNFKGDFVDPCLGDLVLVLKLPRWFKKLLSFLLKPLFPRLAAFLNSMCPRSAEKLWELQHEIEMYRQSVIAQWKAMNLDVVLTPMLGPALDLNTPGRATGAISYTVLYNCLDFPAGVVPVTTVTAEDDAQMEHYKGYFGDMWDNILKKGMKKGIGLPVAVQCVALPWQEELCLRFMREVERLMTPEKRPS
The experiment in a line: In vitro competitive activity-based protein profiling, FAAH, mouse. The note with it: read-out: FAAH % inh. 1 μM (mouse).

Assay [6] addresses T4, FAAH. The experiment in a line: Mouse brain proteomes from inhibitor treated mice (oral gavage, sacrificed 4 h after administration), FAAH. Format: in vivo. The note with it: 5 mg/kg oral gavage, brain proteome 4 h after administration, read-out: FAAH % inh. 5 mg/kg (mouse). Also on record: mouse brain membrane fraction for mouse assays; from tissue; host or cells: mouse brain (membrane fraction in vitro; brain proteomes of treated C57Bl/6J mice in vivo).

Take `CN(Cc1ccc(C(F)(F)F)cc1N1C2CCC1COC2)C1(C)CCN(C(=O)n2ccc(C(=O)O)n2)CC1` [Example 207, 1-(4-((2-(3-oxa-8-azabicyclo[3.2.1]octan-8-yl)-4-(trifluoromethyl)benzyl)(methyl)amino)-4-methyl-piperidine-1-carbonyl)-1H-pyrazole-3-carboxylic acid]: the inhibition at 1 µM was over 75% on MAGL [1], 0 to 25% at FAAH [2], over 75% at MAGL [4] and 0 to 25% at FAAH [5]. Also, the inhibition at 5 mg/kg at MAGL [3] and on FAAH [6] was 0 to 25% each time.

As for `O=C(O)c1ccn(C(=O)N2CCN(Cc3cccc(Cl)c3N3C4CCC3COC4)CC2)n1` [Example 212, 1-(4-(2-(3-oxa-8-azabicyclo[3.2.1]octan-8-yl)-3-chlorobenzyl)piper-azine-1-carbonyl)-1H-pyrazole-3-carboxylic acid], the inhibition at 1 µM is over 75% at MAGL [1], 0 to 25% at FAAH [2], over 75% at MAGL [4] and 0 to 25% at FAAH [5]. Further, the inhibition at 5 mg/kg on MAGL [3] and at FAAH [6] was 0 to 25% throughout.

Turning to `O=C(O)c1ccn(C(=O)N2CCC3(CCCN3Cc3cc(N4CCCC4)cc(C(F)(F)F)c3)CC2)n1` [Example 88, 1-(1-(3-(pyrrolidin-1-yl)-5-(trifluoromethyl)benzyl)-1,8-diazaspiro[4.5]decane-8-carbonyl)-1 1H-pyrazole-3-carboxylic acid], the inhibition at 1 µM at MAGL [1] was over 75%; at FAAH [2], 0 to 25%; on MAGL [4], over 75%; on FAAH [5], 0 to 25%. The inhibition at 5 mg/kg at MAGL [3] and at FAAH [6] was 0 to 25% each time.

Regarding `NC(=O)C1CCN(c2cc(C(F)(F)F)ccc2CN2CCN(C(=O)n3ccc(C(=O)O)n3)CC2)CC1` [Example 113, 1-(4-(2-(4-carbamoylpiperidin-1-yl)-4-(trifluoromethyl)benzyl)piperazine-1-carbonyl)-1H-pyrazole-3-carboxylic acid], the inhibition at 1 µM on MAGL [1] is over 75%; at FAAH [2], 0 to 25%; on MAGL [4] it was over 75%; at FAAH [5], 0 to 25%. Moreover, the inhibition at 5 mg/kg at MAGL [3] and on FAAH [6] was 0 to 25% each time.

Take `O=C(O)c1ccn(C(=O)N2CCN(Cc3ccc(C(F)(F)F)cc3N3CCC(O)CC3)CC2)n1` [Example 120, 1-(4-(2-(4-hydroxypiperidin-1-yl)-4-(trifluoromethyl)benzyl)piperazine-1-carbonyl)-1H-pyrazole-3-carboxylic acid]: the inhibition at 1 µM on MAGL [1] is over 75%; at FAAH [2], 0 to 25%; at MAGL [4], over 75%; at FAAH [5] it was 0 to 25%. Besides, the inhibition at 5 mg/kg on MAGL [3] and at FAAH [6] was 0 to 25% in each case.

Regarding `O=C(O)c1ccn(C(=O)N2CCC3(CCCN3Cc3ccc(C(F)(F)F)cc3N3CCCC3)CC2)n1` [Example 93, 1-(1-(2-(pyrrolidin-1-yl)-4-(trifluoromethyl)benzyl)-1,8-diazaspiro[4.5]decane-8-carbonyl)-1H-pyrazole-3-carboxylic acid], the inhibition at 1 µM at MAGL [1] is over 75%; on FAAH [2], 0 to 25%; on MAGL [4], over 75%; at FAAH [5], 0 to 25%. The IC50 on FAAH [2] lay in the range of 1000 to 10000 nM. The inhibition at 5 mg/kg on MAGL [3] and on FAAH [6] was 0 to 25% each time.

For the compound `O=C(O)c1ccn(C(=O)N2C[C@H]3C[C@H](OCc4cccc(C(F)(F)F)c4)C[C@H]3C2)n1` [Example 157, 1-(trans-5-((3-(trifluoromethyl)benzyl)oxy)octa-hydrocyclopenta[c]pyrrole-2-carbonyl)-1H-pyrazole-3-carboxylic acid], the inhibition at 1 µM on MAGL [1], at FAAH [2], at MAGL [4] and on FAAH [5] was over 75% each time. Also, on FAAH [2], the IC50 was 100 to 1000 nM. The inhibition at 5 mg/kg on MAGL [3] and at FAAH [6] was 0 to 25% throughout.

Regarding `O=C(O)c1ccn(C(=O)N2CCN(Cc3ccc(Cl)cc3N3CC4COCC4C3)CC2)n1` (stereo not shown) [Example 111, 1-(4-(4-chloro-2-(tetrahydro-1H-furo[3,4-c]pyrrol-5(3H)-yl)benzyl)piperazine-1-carbonyl)-1H-pyrazole-3-carboxylic acid], the inhibition at 1 µM on MAGL [1] was over 75%; on FAAH [2], 0 to 25%; on MAGL [4], over 75%; at FAAH [5], 0 to 25%. The inhibition at 5 mg/kg at MAGL [3] and at FAAH [6] was 0 to 25% each time.

Consider `O=C(O)c1ccn(C(=O)N2CCN(Cc3ccc(C(F)(F)F)cc3N3CCCCC3)CC2)n1` [Example 100, 1-(4-(2-(piperidin-1-yl)-4-(trifluoromethyl)benzyl)piperazine-1-carbonyl)-1H-pyrazole-3-carboxylic acid], for which the inhibition at 1 µM is over 75% at MAGL [1], 0 to 25% on FAAH [2], over 75% on MAGL [4] and 0 to 25% on FAAH [5]. The compound also registered an IC50 on FAAH [2] of 1000 to 10000 nM. For the same compound, the inhibition at 5 mg/kg on MAGL [3] and on FAAH [6] was 0 to 25% throughout.

In the case of `NC(=O)c1ccn(C(=O)N2CCN(Cc3cccc(C(F)(F)F)c3N3CCOCC3)CC2)n1` [Example 199, 1-(4-(2-morpholino-3-(trifluoromethyl)benzyl)piperazine-1-carbonyl)-1H-pyrazole-3-carboxamide], the inhibition at 1 µM at MAGL [1], on FAAH [2], on MAGL [4] and on FAAH [5] was over 75% in each case. The compound further gave an IC50 on FAAH [2] of 100 to 1000 nM. In addition, the inhibition at 5 mg/kg on MAGL [3] is over 75%; on FAAH [6], 0 to 25%.

As to `O=C(O)c1ccn(C(=O)N2CCN(Cc3ccc(C(F)(F)F)c(N4CCCC4)c3)CC2)n1` [Example 7, 1-(4-(3-(Pyrrolidin-1-yl)-4-(trifluoromethyl)benzyl)piperazine-1-carbonyl)-1H-pyrazole-3-carboxylic Acid], the inhibition at 1 µM at MAGL [1] was over 75%; on FAAH [2], 0 to 25%; on MAGL [4], over 75%; on FAAH [5], 0 to 25%. Moreover, the inhibition at 5 mg/kg on MAGL [3] and at FAAH [6] was 0 to 25% throughout.
